Measurements reported in ChEMBL document CHEMBL1201862, “PubChem BioAssay data set” (2004).
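A five-concentration, 48-hour dose response in 96-well plates underlies each endpoint, interpolated linearly between surrounding concentrations. At the GI50, growth is halved.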 Active and inactive are the calls of the source. Cut-off read from the data, not from the text of the source: active = GI50 up to about 1.1 µM and inactive = higher.

Legend:
Assay in all cases: growth of human tumour cells (NCI), 48 h
EKVX = tested on: EKVX
OVCAR-4 = tested on: OVCAR-4
COLO 205 = tested on: COLO 205
TK-10 = tested on: TK-10
UACC-257 = tested on: UACC-257
OVCAR-5 = tested on: OVCAR-5
U-251 = tested on: U-251
SF-268 = tested on: SF-268
SNB-19 = tested on: SNB-19
SK-OV-3 = tested on: SK-OV-3
UO-31 = tested on: UO-31
SF-539 = tested on: SF-539
NCI-H460 = tested on: NCI-H460
ACHN = tested on: ACHN
SK-MEL-5 = tested on: SK-MEL-5
KM12 = tested on: KM12
SK-MEL-28 = tested on: SK-MEL-28
SF-295 = tested on: SF-295
MDA-MB-435 = tested on: MDA-MB-435
HOP-92 = tested on: HOP-92
NCI-H522 = tested on: NCI-H522
T47D = tested on: T47D
NCI-H226 = tested on: NCI-H226
SK-MEL-2 = tested on: SK-MEL-2
UACC-62 = tested on: UACC-62
NCI-H23 = tested on: NCI-H23
A549 = tested on: A549
Malme-3M = tested on: Malme-3M
RXF 393 = tested on: RXF 393
SN12C = tested on: SN12C
RPMI-8226 = tested on: RPMI-8226
HCC 2998 = tested on: HCC 2998
A498 = tested on: A498
CCRF-CEM = tested on: CCRF-CEM
786-0 = tested on: 786-0
MOLT-4 = tested on: MOLT-4
IGROV-1 = tested on: IGROV-1
HL-60 = tested on: HL-60
BT-549 = tested on: BT-549
DU-145 = tested on: DU-145
OVCAR-8 = tested on: OVCAR-8
SW-620 = tested on: SW-620
MDA-MB-231 = tested on: MDA-MB-231
LOX IMVI = tested on: LOX IMVI
Hs-578T = tested on: Hs-578T
MDA-N = tested on: MDA-N
HT-29 = tested on: HT-29
M14 = tested on: M14
HOP-62 = tested on: HOP-62
HCT-116 = tested on: HCT-116
PC-3 = tested on: PC-3
OVCAR-3 = tested on: OVCAR-3
K562 = tested on: K562
HCT-15 = tested on: HCT-15
MCF7 = tested on: MCF7
CAKI-1 = tested on: CAKI-1
NCI/ADR-RES = tested on: NCI/ADR-RES
SNB-75 = tested on: SNB-75

For O=[N+]([O-])c1ccc2nc3c(nc2c1)-c1c2ccccc2cc2cccc-3c12, the GI50 (EKVX) was 26.4 µM (inactive), the GI50 (OVCAR-4) was 24.3 µM (inactive) and the GI50 (COLO 205) was > 100 µM (inactive). The GI50 (TK-10) was 25.1 µM (inactive), the GI50 (UACC-257) was 18.8 µM (inactive) and the GI50 (OVCAR-5) was 51.8 µM (inactive). For the same compound, the GI50 (U-251) was 5.9 µM (inactive), the GI50 (SF-268) was 13.8 µM (inactive) and the GI50 (SNB-19) was 11.7 µM (inactive). For the same compound, the GI50 (SK-OV-3) was 17.5 µM (inactive), the GI50 (UO-31) was 12.1 µM (inactive) and the GI50 (SF-539) was 15 µM (inactive). The GI50 (NCI-H460) was 19.7 µM (inactive), the GI50 (ACHN) was 2.74 µM (inactive) and the GI50 (SK-MEL-5) was 31.8 µM (inactive). The GI50 (KM12) was 3.61 µM (inactive), the GI50 (SK-MEL-28) was 51.4 µM (inactive) and the GI50 (SF-295) was 19.6 µM (inactive). For the same compound, the GI50 (MDA-MB-435) was 27.8 µM (inactive), the GI50 (HOP-92) was 14.9 µM (inactive) and the GI50 (NCI-H522) was 3.3 µM (inactive). The GI50 (T47D) was 0.142 µM (active), the GI50 (NCI-H226) was 12.7 µM (inactive) and the GI50 (SK-MEL-2) was 27.2 µM (inactive). For the same compound, the GI50 (UACC-62) was 10.5 µM (inactive), the GI50 (NCI-H23) was 3.61 µM (inactive) and the GI50 (A549) was 48.6 µM (inactive). The GI50 (Malme-3M) was 19 µM (inactive), the GI50 (RXF 393) was 8.41 µM (inactive) and the GI50 (SN12C) was 10.7 µM (inactive). For the same compound, the GI50 (RPMI-8226) was 17.7 µM (inactive), the GI50 (HCC 2998) was 33.3 µM (inactive) and the GI50 (A498) was 0.427 µM (active). The GI50 (CCRF-CEM) was 6.12 µM (inactive), the GI50 (786-0) was 7.62 µM (inactive) and the GI50 (MOLT-4) was 2.17 µM (inactive). The GI50 (IGROV-1) was 4.43 µM (inactive), the GI50 (HL-60) was 20.5 µM (inactive) and the GI50 (BT-549) was 3.56 µM (inactive). For the same compound, the GI50 (DU-145) was 28.2 µM (inactive), the GI50 (OVCAR-8) was 7.55 µM (inactive) and the GI50 (SW-620) was 4.83 µM (inactive). For the same compound, the GI50 (MDA-MB-231) was 18.7 µM (inactive), the GI50 (LOX IMVI) was 4.8 µM (inactive) and the GI50 (Hs-578T) was 5.37 µM (inactive). The GI50 (MDA-N) was 10.5 µM (inactive), the GI50 (HT-29) was 5.31 µM (inactive) and the GI50 (M14) was 31.3 µM (inactive). For the same compound, the GI50 (HOP-62) was 18.6 µM (inactive), the GI50 (HCT-116) was 2.87 µM (inactive) and the GI50 (PC-3) was 9.55 µM (inactive). For the same compound, the GI50 (OVCAR-3) was 12.3 µM (inactive), the GI50 (K562) was 6.1 µM (inactive) and the GI50 (HCT-15) was 6.28 µM. The GI50 (MCF7) was 4.06 µM (inactive), the GI50 (CAKI-1) was 9.77 µM (inactive) and the GI50 (NCI/ADR-RES) was 3.97 µM (inactive).

In the case of O=C(c1ccccc1)n1cc(-c2ccccc2)c2c(=O)nc[nH]c21, the GI50 (EKVX) is reported as > 100 µM (inactive), the GI50 (OVCAR-4) is reported as > 100 µM (inactive) and the GI50 (COLO 205) is reported as > 100 µM (inactive). The GI50 (TK-10) was > 100 µM (inactive), the GI50 (UACC-257) was > 100 µM (inactive) and the GI50 (OVCAR-5) was > 100 µM (inactive). The GI50 (U-251) was > 100 µM (inactive), the GI50 (SF-268) was > 100 µM (inactive) and the GI50 (SNB-19) was > 100 µM (inactive). For the same compound, the GI50 (SK-OV-3) was > 100 µM (inactive), the GI50 (UO-31) was > 100 µM (inactive) and the GI50 (SF-539) was > 100 µM (inactive). The GI50 (ACHN) was > 100 µM (inactive), the GI50 (SK-MEL-5) was > 100 µM (inactive) and the GI50 (KM12) was > 100 µM (inactive). For the same compound, the GI50 (SK-MEL-28) was > 100 µM (inactive), the GI50 (SF-295) was > 100 µM (inactive) and the GI50 (MDA-MB-435) was > 100 µM (inactive). The GI50 (HOP-92) was > 100 µM (inactive), the GI50 (NCI-H522) was > 100 µM (inactive) and the GI50 (T47D) was > 100 µM (inactive). For the same compound, the GI50 (NCI-H226) was > 100 µM (inactive), the GI50 (SK-MEL-2) was > 100 µM (inactive) and the GI50 (UACC-62) was > 100 µM (inactive). The GI50 (NCI-H23) was > 100 µM (inactive), the GI50 (A549) was > 100 µM (inactive) and the GI50 (Malme-3M) was > 100 µM (inactive). The GI50 (RXF 393) was > 100 µM (inactive), the GI50 (SN12C) was > 100 µM (inactive) and the GI50 (RPMI-8226) was > 100 µM (inactive). For the same compound, the GI50 (HCC 2998) was > 100 µM (inactive), the GI50 (A498) was > 100 µM (inactive) and the GI50 (CCRF-CEM) was > 100 µM (inactive). The GI50 (786-0) was > 100 µM (inactive), the GI50 (MOLT-4) was > 100 µM (inactive) and the GI50 (IGROV-1) was > 100 µM (inactive). For the same compound, the GI50 (BT-549) was > 100 µM (inactive), the GI50 (DU-145) was > 100 µM (inactive) and the GI50 (SNB-75) was 17.4 µM (inactive). The GI50 (OVCAR-8) was > 100 µM (inactive), the GI50 (SW-620) was > 100 µM (inactive) and the GI50 (MDA-MB-231) was > 100 µM (inactive). The GI50 (LOX IMVI) was > 100 µM (inactive), the GI50 (Hs-578T) was > 100 µM (inactive) and the GI50 (MDA-N) was > 100 µM (inactive). For the same compound, the GI50 (HT-29) was > 100 µM (inactive), the GI50 (M14) was > 100 µM (inactive) and the GI50 (HOP-62) was > 100 µM (inactive). For the same compound, the GI50 (HCT-116) was > 100 µM (inactive), the GI50 (PC-3) was > 100 µM (inactive) and the GI50 (OVCAR-3) was > 100 µM (inactive). The GI50 (HCT-15) was over 100 µM, the GI50 (MCF7) was > 100 µM (inactive) and the GI50 (CAKI-1) was > 100 µM (inactive). The GI50 (NCI/ADR-RES) was > 100 µM (inactive).
